Laboratory results from US9149038B2, “4-amino-6-(heterocyclic)picolinates and 6-amino-2-(heterocyclic)pyrimidine-4-carboxylates and their use as herbicides” (Dow AgroSciences LLC, priority 2013, dated 2015).
Where two headings read alike, the source gives them in different places.

Tested on: Direct Seeded Rice and weed species
Experiment: Postemergence herbicidal activity in direct seeded rice, visual rating after 20-22 days and probit GR20/GR50/GR80/GR90 (Table 14)
Assay type: in vivo
Conditions: for pest or weed control at 17.5 g/ha / pest or weed control at 35 g/ha / pest or weed control at 70 g/ha: post-emergence, 504 h, postemergence; for pest or weed control at 17.5 g/ha: 17.5 g ai/ha; for pest or weed control at 35 g/ha: 35 g ai/ha; for pest or weed control at 70 g/ha: 70 g ai/ha
Outline: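 Visual injury scores (0 = none, 100 = complete kill) taken 20-22 days after treatment and fitted by probit analysis over several doses to give GR20/GR50/GR80/GR90. Plants at 2nd–3rd true leaf in pH about 8.1 loam–sand mix received track-sprayer applications of 187 L/ha containing 1.25% (v/v) crop oil concentrate.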

[1] = BRAPP (broadleaf signalgrass, Brachiaria platyphylla), read-out: Visual Growth Reduction (%) 21 Days After Application BRAPP
[2] = CYPDI (small-flower flatsedge, Cyperus difformis), read-out: Visual Growth Reduction (%) 21 Days After Application CYPDI
[3] = CYPES (yellow nutsedge, Cyperus esculentus), read-out: Visual Growth Reduction (%) 21 Days After Application CYPES
[4] = CYPIR (rice flatsedge, Cyperus iria), read-out: Visual Growth Reduction (%) 21 Days After Application CYPIR
[5] = DIGSA (large crabgrass, Digitaria sanguinalis), read-out: Visual Growth Reduction (%) 21 Days After Application DIGSA
[6] = ECHCG (barnyardgrass, Echinochloa crus-galli), read-out: Visual Growth Reduction (%) 21 Days After Application ECHCG
[7] = ECHCO (junglerice, Echinochloa colonum), read-out: Visual Growth Reduction (%) 21 Days After Application ECHCO
[8] = LEFCH (Chinese sprangletop, Leptochloa chinensis), read-out: Visual Growth Reduction (%) 21 Days After Application LEFCH
[9] = ORYSJ (Oryza sativa, rice crop), read-out: Visual Growth Reduction (%) 21 Days After Application ORYSJ
[10] = ORYSK (Oryza sativa, rice crop), read-out: Visual Growth Reduction (%) 21 Days After Application ORYSK
[11] = SCPJU (Japanese bulrush, Schoenoplectus juncoides Roxb.), read-out: Visual Growth Reduction (%) 21 Days After Application SCPJU
[12] = SEBEX (hemp sesbania, Sesbania exaltata), read-out: Visual Growth Reduction (%) 21 Days After Application SEBEX

COC(=O)c1nc(-c2ccc3c(c2F)OC(F)(F)O3)cc(N)c1Cl [Compound 37, Methyl 4-amino-3-chloro-6-(2,2,4-trifluorobenzo-[d][1,3]dioxol-5-yl)picolinate]
GR50 BRAPP (BRAPP (Brachiaria platyphylla), probit analysis, dose for 50 percent growth reduction): 3 g ai/ha | GR80 BRAPP (BRAPP (Brachiaria platyphylla), probit analysis, dose for 80 percent growth reduction): 15 g ai/ha | GR90 BRAPP (BRAPP (Brachiaria platyphylla), probit analysis, dose for 90 percent growth reduction): 39 g ai/ha | GR50 CYPDI (CYPDI (Cyperus difformis), probit analysis, dose for 50 percent growth reduction): 0.04 g ai/ha | GR80 CYPDI (CYPDI (Cyperus difformis), probit analysis, dose for 80 percent growth reduction): 1 g ai/ha | GR90 CYPDI (CYPDI (Cyperus difformis), probit analysis, dose for 90 percent growth reduction): 2 g ai/ha | GR50 CYPES (CYPES (Cyperus esculentus), probit analysis, dose for 50 percent growth reduction): <18 g ai/ha | GR80 CYPES (CYPES (Cyperus esculentus), probit analysis, dose for 80 percent growth reduction): <18 g ai/ha | GR90 CYPES (CYPES (Cyperus esculentus), probit analysis, dose for 90 percent growth reduction): <18 g ai/ha | GR50 CYPIR (CYPIR (Cyperus iria), probit analysis, dose for 50 percent growth reduction): 6 g ai/ha | GR80 CYPIR (CYPIR (Cyperus iria), probit analysis, dose for 80 percent growth reduction): 23 g ai/ha | GR90 CYPIR (CYPIR (Cyperus iria), probit analysis, dose for 90 percent growth reduction): 46 g ai/ha | GR50 DIGSA (DIGSA (Digitaria sanguinalis), probit analysis, dose for 50 percent growth reduction): 0.07 g ai/ha | GR80 DIGSA (DIGSA (Digitaria sanguinalis), probit analysis, dose for 80 percent growth reduction): 2 g ai/ha | GR90 DIGSA (DIGSA (Digitaria sanguinalis), probit analysis, dose for 90 percent growth reduction): 8 g ai/ha | GR50 ECHCG (ECHCG (Echinochloa crus-galli), probit analysis, dose for 50 percent growth reduction): 0.33 g ai/ha | GR80 ECHCG (ECHCG (Echinochloa crus-galli), probit analysis, dose for 80 percent growth reduction): 4 g ai/ha | GR90 ECHCG (ECHCG (Echinochloa crus-galli), probit analysis, dose for 90 percent growth reduction): 17 g ai/ha | GR50 ECHCO (ECHCO (Echinochloa colonum), probit analysis, dose for 50 percent growth reduction): 0.001 g ai/ha | GR80 ECHCO (ECHCO (Echinochloa colonum), probit analysis, dose for 80 percent growth reduction): 0.2 g ai/ha | GR90 ECHCO (ECHCO (Echinochloa colonum), probit analysis, dose for 90 percent growth reduction): 3 g ai/ha | GR50 LEFCH (LEFCH (Leptochloa chinensis), probit analysis, dose for 50 percent growth reduction): 116 g ai/ha | GR80 LEFCH (LEFCH (Leptochloa chinensis), probit analysis, dose for 80 percent growth reduction): 288 g ai/ha | GR90 LEFCH (LEFCH (Leptochloa chinensis), probit analysis, dose for 90 percent growth reduction): 464 g ai/ha | GR20 ORYSJ (ORYSJ (Oryza sativa, rice crop), probit analysis, dose for 20 percent growth reduction): 56 g ai/ha | GR20 ORYSK (ORYSK (Oryza sativa, rice crop), probit analysis, dose for 20 percent growth reduction): 70 g ai/ha | GR50 SCPJU (SCPJU (Schoenoplectus juncoides Roxb.), probit analysis, dose for 50 percent growth reduction): 0.0001 g ai/ha | GR80 SCPJU (SCPJU (Schoenoplectus juncoides Roxb.), probit analysis, dose for 80 percent growth reduction): 0.0001 g ai/ha | GR90 SCPJU (SCPJU (Schoenoplectus juncoides Roxb.), probit analysis, dose for 90 percent growth reduction): 0.0001 g ai/ha | GR50 SEBEX (SEBEX (Sesbania exaltata), probit analysis, dose for 50 percent growth reduction): 2 g ai/ha | GR80 SEBEX (SEBEX (Sesbania exaltata), probit analysis, dose for 80 percent growth reduction): 15 g ai/ha | GR90 SEBEX (SEBEX (Sesbania exaltata), probit analysis, dose for 90 percent growth reduction): 47 g ai/ha | pest or weed control at 17.5 g/ha [1]: 60 to 74% | pest or weed control at 35 g/ha [1]: 85 to 94% | pest or weed control at 70 g/ha [1]: 95 to 100% | pest or weed control at 17.5 g/ha [2]: 95 to 100% | pest or weed control at 35 g/ha [2]: 95 to 100% | pest or weed control at 70 g/ha [2]: 95 to 100% | pest or weed control at 17.5 g/ha [3]: 75 to 84% | pest or weed control at 35 g/ha [3]: 85 to 94% | pest or weed control at 70 g/ha [3]: 95 to 100% | pest or weed control at 17.5 g/ha [4]: 85 to 94% | pest or weed control at 35 g/ha [4]: 45 to 59% | pest or weed control at 70 g/ha [4]: 95 to 100% | pest or weed control at 17.5 g/ha [5]: 85 to 94% | pest or weed control at 35 g/ha [5]: 95 to 100% | pest or weed control at 70 g/ha [5]: 95 to 100% | pest or weed control at 17.5 g/ha [6]: 85 to 94% | pest or weed control at 35 g/ha [6]: 85 to 94% | pest or weed control at 70 g/ha [6]: 95 to 100% | pest or weed control at 17.5 g/ha [7]: 85 to 94% | pest or weed control at 35 g/ha [7]: 95 to 100% | pest or weed control at 70 g/ha [7]: 95 to 100% | pest or weed control at 17.5 g/ha [8]: 0 to 29% | pest or weed control at 35 g/ha [8]: 0 to 29% | pest or weed control at 70 g/ha [8]: 45 to 59% | pest or weed control at 17.5 g/ha [9]: 0 to 29% | pest or weed control at 35 g/ha [9]: 0 to 29% | pest or weed control at 70 g/ha [9]: 30 to 44% | pest or weed control at 17.5 g/ha [10]: 0 to 29% | pest or weed control at 35 g/ha [10]: 0 to 29% | pest or weed control at 70 g/ha [10]: 0 to 29% | pest or weed control at 17.5 g/ha [11]: 95 to 100% | pest or weed control at 35 g/ha [11]: 95 to 100% | pest or weed control at 70 g/ha [11]: 95 to 100% | pest or weed control at 17.5 g/ha [12]: 75 to 84% | pest or weed control at 35 g/ha [12]: 85 to 94% | pest or weed control at 70 g/ha [12]: 95 to 100%
